Source: US10849906B2, “Use of Akt2 in diagnosis and treatment of tumor” (priority 2015, dated 2020)

Columns and labels:
[1] = tested on: CCRF-CEM cells; experiment: Apoptosis by Annexin V-FITC PI double staining (flow cytometry), CCRF-CEM; type: cell-based, human; details: compared to dexamethasone alone; FIG. 2A: Akt inhibitor 1 μM, dexamethasone 1 μM, LY294002 30 μM; FIG. 2G, 2J, 2K
Method: (§1) The control group was not added with any reagents. All experiments were performed in triplicate.
Apoptosis was detected by Annexin V-FITC PI double staining method (flow cytometry kit (FITC, PI double staining), Sangon Biotech (Shanghai) Co., Ltd.)), and the collected cells were washed once with phosphate buffered saline (PBS) (135 mM NaCl, 2.7 mM KCl, 1.5 mM KH2PO4 and 8 mM K2HPO4, pH 7.2); the 4× binding buffer was diluted to a 1× binding buffer with deionized water, then the cells were resuspended with 195 ul of the 1× binding buffer at a cell density of 2-5×10^5/ml; 5 μl of Annexin V-FITC was added to the 195 μl of the cell resuspension and mixed, and incubated in dark at room temperature for 10 minutes; the cells were washed once with 200 μl of the 1× binding buffer, and then resuspended in 190 μl of the 1× binding buffer; 10 μl of propidium iodide (20 μg/ml) was added. A flow cytometry device (Beckman company) was used for detection, and the rate of apoptosis was analyzed using Summit software.
(§2) The cells were cultured in RPMI 1640 complete medium (Gibco company) containing 10% fetal bovine serum (FBS, Gibco company) in an incubator (Thermo company) at 5% CO2 and 37° C. until reaching logarithmic growth phase, then different concentrations of inhibitors and/or dexamethasone/ethanol/DMSO were added to the culture medium, followed by further culturing (for addition of dexamethasone/ethanol/DMSO, for 48 hours, and for addition of inhibitor, for 24 hours), and apoptosis was detected by Annexin V-FITC PI double staining and proteins were detected by Western blot, as described in Example 1.
(§3) As described in Example 3, the cells were cultured in RPMI 1640 complete medium containing 10% fetal bovine serum under 5% CO2 and 37° C. until reaching logarithmic growth phase, and then dexamethasone and different concentrations of Akt inhibitor were added to the culture medium, followed by further culture (for addition of dexamethasone/DMSO, for 48 hours, and for addition of the inhibitor, for 24 hours), the apoptosis was detected by Annexin V-FITC PI double staining method and proteins were detected by Western blot as described in Example 1 as well as the cell viability was detected by CCK-8 method.

[2] = tested on: Akt/FoxO3a/Bim signaling pathway in CCRF-CEM cells; experiment: Western blot of Akt/FoxO3a/Bim signaling pathway proteins in CCRF-CEM cells; type: cell-based, human; details: for expression of phosphorylated FoxO3a, inhibitor plus dexamethasone: 2I
Method: as §1
Protein detection by Western blot: in the examples of the present invention, Akt antibody (rabbit derived), phosphorylated Akt antibody (rabbit derived), FoxO3a antibody (rabbit derived), phosphorylated FoxO3a antibody (rabbit derived) and GAPDH antibody (rabbit derived) and secondary antibodies were all purchased from CST company. The cells were collected in a centrifuge tube and centrifuged at 1000 rpm, the supernatant was discarded and the cells were washed twice with PBS pre-cold at 4° C.; cell lysis buffer (150 mM NaCl, 1% NP-40, 0.1% SDS, 2 μg/ml Aprotinin, 2 μg/ml Leupeptin, 1 mM PMSF, 1.5 mM EDTA, 1 mM sodium vanadate) was added and the cells were lysed on ice for 40 minutes, the cell lysate was centrifuged at 20000 rpm, 4° C. for 15 minutes, and the supernatant was collected; a protein loading buffer for sodium dodecyl sulfate polyacrylamide (SDS-PAGE) gel electrophoresis (1.25 mL 1MTris-HCl (pH6.8), 0.5 g SDS, 25 mg BPB, 2.5 mL glycerol, 5 mL deionized water) was added, followed by boiling for 5 minutes to denature proteins; the loading buffer containing denatured proteins was applied to 10% SDS-PAGE for electrophoresis at 120 V, and then transferred to a PVDF membrane (Sangon Biotech (Shanghai) Co., Ltd.) at 130 V for 1.5 hours; after the membrane transfer was completed, the PVDF membrane was immediately rinsed with a Western washing solution (150 mmol/L NaCl, 50 mmol/L Tris-HCl (pH 7.5)) for 1-2 minutes; added with 5% non-fat milk powder (Shanghai Biotechnology Co., Ltd.), agitated gently and then blocked at room temperature for 60 minutes; a primary antibody diluted appropriately with 5% non-fat milk powder was added, and incubated overnight at room temperature with gentle agitating; the primary antibody was recovered and the membrane was washed three times with the washing solution for 5-10 minutes each; a horseradish peroxidase-labeled secondary antibody diluted appropriately with the Western washing solution was added, and incubated at room temperature for 1 hour with gentle agitating; the secondary antibody was recovered and the membrane was washed three times with the Western washing solution for 5-10 minutes each. An appropriate amount of developing solution (DAB 4 mg, 30% hydrogen peroxide 15 μL, 0.01 M Tris-Cl (pH 7.5) 5 mL) was dropped on the PVDF membrane, the image was detected using a bioluminescence image colorimeter and a gel imaging system (Thermo company), and the quantitative analysis of bands was performed using Image Lab software.
as §2
Methods: CCRF-CEM cells were cultured in RPMI 1640 complete medium (Gibco company) containing 10% fetal bovine serum (FBS, Gibco company) in an incubator (Thermo company) at 5% CO2 and 37° C. until reaching logarithmic growth phase, then DMSO, dexamethasone and different inhibitors (DMSO: 0.1%, dexamethasone: 0.1 μM, inhibitors: 0.8 μM) were added to the culture medium, and further cultured (for addition of dexamethasone or DMSO, for 48 hours, and for addition of inhibitors, for 24 hours), and the proteins were detected by Western blot, as described in Example 1.

[3] = tested on: L-02 human-derived healthy liver cell line; experiment: CCK-8 viability of healthy liver cells L-02; details: DEX 0.1 μM, inhibitors 0.8 μM, FIG. 6A
[4] = tested on: CCRF-CEM cells; experiment: Cell viability by CCK-8 and combination index, CCRF-CEM; type: cell-based; details: Homo sapiens, dexamethasone alone (original), read-out: concentration of dexamethasone at which 50% viability of CCRF-CEM cells (IC50 value) was inhibited
Method: as §3
(§4) The inhibitory effect of two drugs (dexamethasone and an inhibitor) alone and in combination on various lymphocyte lines was observed by CCK-8 method (CCK-8 kit), and then the half-inhibitory concentration of each drug was calculated using the median effect equation, and the combination index (CI) of the two drugs used in combination was calculated using CompuSyn software. […]
(§5) (3) 10 μl of CCK-8 was added to each well, and cultured for 2 hours, and the optical density (OD) was measured at 450 nm using an automatic microplate reader, and the proliferation inhibition rate of the drug on cell was calculated. […]

[5] = tested on: Daudi cells; experiment: Cell viability by CCK-8 and combination index, Daudi; type: cell-based, human; details: Homo sapiens, Daudi; dexamethasone alone (original); read-out: concentration of dexamethasone at which 50% viability of Daudi cells (IC50 value) was inhibited
Method: as §3
The inhibitory effect of two drugs (dexamethasone and an inhibitor) alone and in combination on various lymphocyte lines was observed by CCK-8 method (CCK-8 kit), and then the half-inhibitory concentration of each drug was calculated using the median effect equation, and the combination index (CI) of the two drugs used in combination was calculated using CompuSyn software.
(1) the lymphocytes of logarithmic growth phase were taken and made to a cell suspension of 5×10^4/mL, a blank control group (5 wells), a dexamethasone group (3 wells for each concentration, triplicates), a single inhibitor group (3 wells for each concentration, triplicates), a dexamethasone plus inhibitor group (3 wells for each combined concentration, triplicates) were prepared, 180 μL of the suspension was seeded to each well of a 96-well plate, and incubated for 24 hours in an incubator at 5% CO2 and 37° C.
Based on the drug resistance of cells, the ratio of two drugs was fixed. The dexamethasone group was cultured for 48 hours while the inhibitor group was cultured for 24 hours.
(3) 10 μl of CCK-8 was added to each well, and cultured for 2 hours, and the optical density (OD) was measured at 450 nm using an automatic microplate reader, and the proliferation inhibition rate of the drug on cell was calculated.
(4) the proliferation inhibition rate was calculated according to the following equation: cell proliferation inhibition rate=(1-average OD value in the test group/average OD value in the control group)×100%, and the effect of interaction between the two drugs was analyzed by Chou-Talalay combination index method.

[6] = Toxicity in tumor-bearing nude mice (peripheral blood test, organ pathology); details: compared to the NC group
[7] = tested on: Jurkat cells; experiment: Cell viability by CCK-8 and combination index, Jurkat; type: cell-based; details: Homo sapiens, dexamethasone alone (original), read-out: concentration of dexamethasone at which 50% viability of Jurkat cells (IC50 value) was inhibited
Method: as §3, §4, §5

[8] = tested on: CEM-DR cells; experiment: Cell viability by CCK-8 and combination index, CEM-DR; type: cell-based; details: Homo sapiens; dexamethasone alone (original); read-out: concentration of dexamethasone at which 50% viability of CEM-DR cells (IC50 value) was inhibited
Method: as §3, §4, §5

[9] = compared to the only dexamethasone group, FIG. 2B, 2H

SMILES: OCC1OC(O)CC(O)C1O (centres unmarked) [2-DG]
- apoptosis of CCRF-CEM cells induced by dexamethasone, inhibitor plus dexamethasone [1]: significantly increased
- total FoxO3a expression, inhibitor plus dexamethasone ([2]; compared to dexamethasone alone, FIG. 2H): increased
- expression of pro-apoptosis factor Bim, inhibitor plus dexamethasone [2, 9]: significantly up-regulated
- expression of phosphorylated FoxO3a, inhibitor plus dexamethasone [2, 9]: decreased

SMILES: C[C@H](NC(=O)Cc1cc(F)cc(F)c1)C(=O)N[C@H](C(=O)OC(C)(C)C)c1ccccc1 [dapt]
- apoptosis of CCRF-CEM cells induced by dexamethasone, inhibitor plus dexamethasone [1]: significantly increased
- expression of phosphorylated FoxO3a, inhibitor plus dexamethasone [2, 9]: significantly reduced

SMILES: C[C@@H]1C[C@H]2[C@@H]3CCC4=CC(=O)C=C[C@]4(C)[C@@]3(F)[C@@H](O)C[C@]2(C)[C@@]1(O)C(=O)CO [dexamethasone]
- damage to liver cells [3]: no damage to liver cells
- IC50 [4]: 0.3 µM
- IC50 [5]: 225 µM
- peripheral blood leukocyte level ([6]; FIG. 6J): no significant difference
- level of peripheral blood RBC ([6]; FIG. 6K): significantly increased
- level of peripheral blood HGB ([6]; FIG. 6L): significantly increased
- peripheral blood platelet level ([6]; FIG. 6M): no significant difference
- blood glucose level ([6]; FIG. 6N): no significant difference
- peripheral blood creatinine level ([6]; FIG. 6O): no significant difference
- IC50 [7]: 224 µM
- IC50 [8]: 138 µM
